Measurements: ChEMBL document CHEMBL1134980, “Structure-activity relationships for a series of thiobenzamide influenza fusion inhibitors derived from 1,3,3-trimethyl-5-hydroxy-cyclohexylmethylamine” (Bioorg Med Chem Lett, 2002)
≈ marks a conversion by molar mass, not a printed value.

Legend:
MDCK = experiment: The concentration causing a 50% reduction in cell viability in the absence of influenza infection on MDCK cells in cell protection assay.; assay type: functional; details: Canis lupus familiaris
Influenza A virus = experiment: Anti-influenza activity on A/WSN/33 (H1N1 subtype) strain of influenza virus infected on MDCK cells in cell protection assay.; assay type: functional, organism-based

Structure (SMILES) | CC50 (MDCK) | EC50 (Influenza A virus) | IC50 (Influenza A virus)
CC1(C)C[C@@H](O)C[C@](C)(C/N=C(\S)c2ccccc2)C1 | 10 µg/mL (≈ 34.3 µM) | 0.05 µg/mL (≈ 0.172 µM) | 0.15 µg/mL (≈ 0.515 µM)
Cc1cccc(/C(S)=N/C[C@@]2(C)C[C@H](O)CC(C)(C)C2)c1 | 35 µg/mL (≈ 115 µM) | 0.015 µg/mL (≈ 0.0491 µM) | 0.03 µg/mL (≈ 0.0982 µM)
CC1(C)C[C@H](O)C[C@](C)(C/N=C(\S)c2cc(Cl)ccc2O)C1 | 5.5 µg/mL (≈ 16.1 µM) | 0.9 µg/mL (≈ 2.63 µM) | 2.8 µg/mL (≈ 8.19 µM)
Cc1ccc(C)c(/C(S)=N/C[C@@]2(C)C[C@@H](O)CC(C)(C)C2)c1 | 30 µg/mL (≈ 93.9 µM) | Not Active | 1.5 µg/mL (≈ 4.69 µM)
CC1(C)C[C@H](O)C[C@](C)(C/N=C(\S)c2ccccc2O)C1 | 40 µg/mL (≈ 130 µM) | 4.5 µg/mL (≈ 14.6 µM) | 2.4 µg/mL (≈ 7.81 µM)
CC1(C)C[C@@H](O)C[C@](C)(C/N=C(\S)c2cccc([N+](=O)[O-])c2)C1 | 15 µg/mL (≈ 44.6 µM) | Not Active | 1.8 µg/mL (≈ 5.35 µM)
Cc1ccccc1/C(S)=N/C[C@@]1(C)C[C@@H](O)CC(C)(C)C1 | 2 µg/mL (≈ 6.55 µM) | Not Active | 2.4 µg/mL (≈ 7.86 µM)
Cc1ccc(C)c(/C(S)=N/C[C@@]2(C)C[C@H](O)CC(C)(C)C2)c1 | 45 µg/mL (≈ 141 µM) | 0.023 µg/mL (≈ 0.072 µM) | 0.08 µg/mL (≈ 0.25 µM)
CC1(C)C[C@H](O)C[C@](C)(C/N=C(\S)c2cccc(Cl)c2)C1 | 8.5 µg/mL (≈ 26.1 µM) | Not Active | 2.5 µg/mL (≈ 7.67 µM)
CC1(C)C[C@H](O)C[C@](C)(CNC(=O)Nc2ccccc2Cl)C1 (relative stereo) |  |  | 0.1 µg/mL (≈ 0.308 µM)
CC1(C)C[C@@H](O)C[C@](C)(C/N=C(\S)c2cccc(Cl)c2)C1 | 20 µg/mL (≈ 61.4 µM) | 0.02 µg/mL (≈ 0.0614 µM) | 0.047 µg/mL (≈ 0.144 µM)
Cc1cccc(/C(S)=N/C[C@@]2(C)C[C@@H](O)CC(C)(C)C2)c1 | 20 µg/mL (≈ 65.5 µM) | Not Active | 7.5 µg/mL (≈ 24.6 µM)
Cc1ccc(O)c(/C(S)=N/C[C@@]2(C)C[C@H](O)CC(C)(C)C2)c1 | 20 µg/mL (≈ 62.2 µM) | 0.5 µg/mL (≈ 1.56 µM) | 0.33 µg/mL (≈ 1.03 µM)
Cc1ccc(/C(S)=N/C[C@@]2(C)C[C@H](O)CC(C)(C)C2)cc1 | 40 µg/mL (≈ 131 µM) | Not Active | 7 µg/mL (≈ 22.9 µM)
CC1(C)C[C@H](O)C[C@](C)(C/N=C(\S)c2ccccc2)C1 | 50 µg/mL (≈ 172 µM) | Not Active | 3.5 µg/mL (≈ 12 µM)
CC1(C)C[C@H](O)C[C@](C)(CNC(=O)c2cc(Cl)ccc2O)C1 | 80 µg/mL (≈ 246 µM) | 0.06 µg/mL (≈ 0.184 µM) | 0.025 µg/mL (≈ 0.0767 µM)
CC1(C)C[C@@H](O)C[C@](C)(C/N=C(\S)c2ccccc2O)C1 | 40 µg/mL (≈ 130 µM) | 2 µg/mL (≈ 6.5 µM) | 2.4 µg/mL (≈ 7.81 µM)
COc1ccccc1/C(S)=N/C[C@@]1(C)C[C@H](O)CC(C)(C)C1 | 43 µg/mL (≈ 134 µM) | 1 µg/mL (≈ 3.11 µM) | 0.5 µg/mL (≈ 1.56 µM)
CC1(C)C[C@@H](O)C[C@](C)(C/N=C(\S)c2cccc(C(F)(F)F)c2)C1 | 15 µg/mL (≈ 41.7 µM) | 0.09 µg/mL (≈ 0.25 µM) | 0.3 µg/mL (≈ 0.835 µM)
Cc1ccc(O)c(C(=O)NC[C@@]2(C)C[C@H](O)CC(C)(C)C2)c1 | 70 µg/mL (≈ 229 µM) | 0.15 µg/mL (≈ 0.491 µM) | 0.015 µg/mL (≈ 0.0491 µM)

Structure (SMILES) | CC50 (MDCK) | EC50 (Influenza A virus) | IC50 (Influenza A virus)
CC1(C)C[C@@H](O)C[C@](C)(CNC(=O)Nc2ccccc2Cl)C1 |  |  | 0.1 µg/mL (≈ 0.308 µM)
COc1ccccc1/C(S)=N/C[C@@]1(C)C[C@@H](O)CC(C)(C)C1 | 45 µg/mL (≈ 140 µM) | Not Active | Not Active
CC1(C)C[C@@H](O)C[C@](C)(C/N=C(\S)c2cccc(F)c2)C1 | 70 µg/mL (≈ 226 µM) | 0.038 µg/mL (≈ 0.123 µM) | 0.19 µg/mL (≈ 0.614 µM)
CC1(C)C[C@@H](O)C[C@](C)(C/N=C(\S)c2cccc(C#N)c2)C1 | 22 µg/mL (≈ 69.5 µM) | 2.5 µg/mL (≈ 7.9 µM) | Not Active
Cc1ccc(O)c(C(=O)NC[C@@]2(C)C[C@@H](O)CC(C)(C)C2)c1 | 50 µg/mL (≈ 164 µM) | 0.03 µg/mL (≈ 0.0982 µM) | 0.039 µg/mL (≈ 0.128 µM)
CC1(C)C[C@H](O)C[C@](C)(CNC(=O)c2ccccc2O)C1 | 70 µg/mL (≈ 240 µM) |  | 
Cc1ccc(/C(S)=N/C[C@@]2(C)C[C@@H](O)CC(C)(C)C2)c(C)c1 | 30 µg/mL (≈ 93.9 µM) | Not Active | Not Active
CC1(C)C[C@@H](O)C[C@](C)(CNC(=O)c2cc(Cl)ccc2O)C1 | > 100 µg/mL | 0.2 µg/mL (≈ 0.614 µM) | 0.15 µg/mL (≈ 0.46 µM)
CC1(C)C[C@H](O)C[C@](C)(C/N=C(\S)c2cccc(C(F)(F)F)c2)C1 | 5 µg/mL (≈ 13.9 µM) | Not Active | 23 µg/mL (≈ 64 µM)
Cc1ccc(/C(S)=N/C[C@@]2(C)C[C@@H](O)CC(C)(C)C2)cc1 | 25 µg/mL (≈ 81.8 µM) | Not Active | Not Active
CC1(C)C[C@H](O)C[C@](C)(C/N=C(\S)c2cccc(F)c2)C1 | 20 µg/mL (≈ 64.6 µM) | Not Active | 5 µg/mL (≈ 16.2 µM)
Cc1ccc(O)c(/C(S)=N/C[C@@]2(C)C[C@@H](O)CC(C)(C)C2)c1 | 15 µg/mL (≈ 46.7 µM) | 0.4 µg/mL (≈ 1.24 µM) | 0.16 µg/mL (≈ 0.498 µM)
Cc1ccccc1/C(S)=N/C[C@@]1(C)C[C@H](O)CC(C)(C)C1 | 70 µg/mL (≈ 229 µM) | 0.065 µg/mL (≈ 0.213 µM) | 0.14 µg/mL (≈ 0.458 µM)
COC(=O)c1cccc(/C(S)=N/C[C@@]2(C)C[C@H](O)CC(C)(C)C2)c1 | 50 µg/mL (≈ 143 µM) | Not Active | Not Active
CC1(C)C[C@@H](O)C[C@](C)(C/N=C(\S)c2cc(Cl)ccc2O)C1 | 4 µg/mL (≈ 11.7 µM) | 1.8 µg/mL (≈ 5.26 µM) | 1 µg/mL (≈ 2.92 µM)
Cc1ccc(/C(S)=N/C[C@@]2(C)C[C@H](O)CC(C)(C)C2)c(C)c1 | 35 µg/mL (≈ 110 µM) | 0.15 µg/mL (≈ 0.469 µM) | 0.45 µg/mL (≈ 1.41 µM)
CC1(C)C[C@@H](O)C[C@](C)(CNC(=O)c2ccccc2O)C1 | 90 µg/mL (≈ 309 µM) |  | 
Cc1cc(C)cc(/C(S)=N/C[C@@]2(C)C[C@@H](O)CC(C)(C)C2)c1 | 40 µg/mL (≈ 125 µM) | Not Active | 0.5 µg/mL (≈ 1.56 µM)
Cc1cc(C)cc(/C(S)=N/C[C@@]2(C)C[C@H](O)CC(C)(C)C2)c1 | 18 µg/mL (≈ 56.3 µM) | 0.03 µg/mL (≈ 0.0939 µM) | 0.52 µg/mL (≈ 1.63 µM)
